Test results published in patent publication US7709636B2, “Pyrazole sulfonylurea compound and herbicide” (Nissan Chemical Industries, Ltd., priority 2004, dated 2010).

Columns and labels:
corn (Zea mays) [1] = assay: Herbicidal effect test by soil treatment; type: in vivo; details: 1.6 g/a, 3 weeks after treatment
Method in brief: (§1)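 Pre-emergence soil application: wettable powder formulation, water-diluted to set dose, sprayed evenly over soil surface after sowing; seeds under ~1.5 cm sterilized diluvial soil. Effect rated at 3 wk by criteria scale.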

Beta vulgaris (beet) [2] = assay: Herbicidal effect test by soil treatment; type: in vivo; details: 1.6 g/a, 3 weeks after treatment
Method in brief: as §1

Polygonum blumei [3] = assay: Herbicidal effect test by soil treatment; type: in vivo; details: 1.6 g/a, 3 weeks after treatment
Method in brief: as §1

soybean (Glycine max) [4] = assay: Herbicidal effect test by soil treatment; type: in vivo; details: 1.6 g/a, 3 weeks after treatment
Method in brief: as §1

Abutilon avicennae [5] = assay: Herbicidal effect test by soil treatment; type: in vivo; details: 1.6 g/a, 3 weeks after treatment
Method in brief: as §1

Echinochloa crus-galli [6] = assay: Herbicidal effect test by soil treatment; type: in vivo; details: 1.6 g/a, 3 weeks after treatment
Method in brief: as §1

Amaranthus retroflexus [7] = assay: Herbicidal effect test by soil treatment; type: in vivo; details: 1.6 g/a, 3 weeks after treatment
Method in brief: as §1

Black-grass [8] = assay: Herbicidal effect test by soil treatment; type: in vivo; details: 1.6 g/a, 3 weeks after treatment
Method in brief: as §1

[9] = system: Triticum aestivum (wheat); assay: Herbicidal effect test by soil treatment; type: in vivo; details: 1.6 g/a, 3 weeks after treatment
Method in brief: as §1

Ambrosia elatior [10] = assay: Herbicidal effect test by soil treatment; type: in vivo; details: 1.6 g/a, 3 weeks after treatment
Method in brief: as §1

Stellaria media [11] = assay: Herbicidal effect test by soil treatment; type: in vivo; details: 1.6 g/a, 3 weeks after treatment
Method in brief: as §1

Chenopodium album [12] = assay: Herbicidal effect test by soil treatment; type: in vivo; details: 1.6 g/a, 3 weeks after treatment
Method in brief: as §1

Avena fatua [13] = assay: Herbicidal effect test by soil treatment; type: in vivo; details: 1.6 g/a, 3 weeks after treatment
Method in brief: as §1

Setaria viridis [14] = assay: Herbicidal effect test by soil treatment; type: in vivo; details: 1.6 g/a, 3 weeks after treatment
Method in brief: as §1

Digitaria adscendes [15] = assay: Herbicidal effect test by soil treatment; type: in vivo; details: 1.6 g/a, 3 weeks after treatment
Method in brief: as §1

Echinochloa crus-galli [16] = assay: Herbicidal effect test in submerged condition by treatment before weed-generation (1); type: in vivo; details: 0.64 g/a, water surface treated on day of sowing, 3 weeks after treatment
Method in brief: (§2)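 Pre-emergence water-surface application of diluted wettable-powder formulation at a predetermined rate, same day as sowing, in flooded alluvial soil (4 cm water) with transplanted 2.5-leaf rice. Grown 3 weeks at 25 to 30° C in greenhouse; rated 0–5 by herbicidal rate.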

Monochoria vaginalis [17] = assay: as above; type: in vivo; details: 0.64 g/a, water surface treated on day of sowing, 3 weeks after treatment
Method in brief: as §2

Scirpus juncoides [18] = assay: as above; type: in vivo; details: 0.64 g/a, water surface treated on day of sowing, 3 weeks after treatment
Method in brief: as §2

direct sown rice [19] = assay: Herbicidal effect test by foliage treatment; type: in vivo, Oryza sativa; details: 1.6 g/a; foliage treatment after growth of 14 days; 3 weeks after treatment
Method in brief: (§3)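 Post-emergence foliar spray: plants raised 14 d in greenhouse (25–30° C) from seed in sterilized diluvial soil, sprayed with diluted wettable powder formulation, injury rated visually at 3 wk.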

Echinochloa crus-galli [20] = assay: Herbicidal effect test in submerged condition by treatment during weed-growth stage (1); type: in vivo; details: 0.64 g/a, treated at 1st to 2nd leaf stage, 3 weeks after treatment
Method in brief: (§4)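 Paddy-soil pots flooded to 4 cm water depth were sown and grown in a greenhouse at 25 to 30° C until weeds reached 1st to 2nd leaf stage. A wettable powder diluted in water to a predetermined formulation amount was applied to the water surface. Herbicidal effect was scored 3 weeks after treatment against set criteria.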

Monochoria vaginalis [21] = assay: as above; type: in vivo; details: 0.64 g/a, treated at 1st to 2nd leaf stage, 3 weeks after treatment
Method in brief: as §4

Scirpus juncoides [22] = assay: as above; type: in vivo; details: 0.64 g/a, treated at 1st to 2nd leaf stage, 3 weeks after treatment
Method in brief: as §4

direct sown rice [23] = assay: Herbicidal effect test by soil treatment; type: in vivo, Oryza sativa; details: 1.6 g/a, 3 weeks after treatment
Method in brief: as §1

corn (Zea mays) [24] = assay: Herbicidal effect test by foliage treatment; type: in vivo; details: 1.6 g/a; foliage treatment after growth of 14 days; 3 weeks after treatment
Method in brief: as §3

Beta vulgaris (beet) [25] = assay: Herbicidal effect test by foliage treatment; type: in vivo; details: 1.6 g/a; foliage treatment after growth of 14 days; 3 weeks after treatment
Method in brief: as §3

Polygonum blumei [26] = assay: Herbicidal effect test by foliage treatment; type: in vivo; details: 1.6 g/a; foliage treatment after growth of 14 days; 3 weeks after treatment
Method in brief: as §3

soybean (Glycine max) [27] = assay: Herbicidal effect test by foliage treatment; type: in vivo; details: 1.6 g/a; foliage treatment after growth of 14 days; 3 weeks after treatment
Method in brief: as §3

Abutilon avicennae [28] = assay: Herbicidal effect test by foliage treatment; type: in vivo; details: 1.6 g/a; foliage treatment after growth of 14 days; 3 weeks after treatment
Method in brief: as §3

Echinochloa crus-galli [29] = assay: Herbicidal effect test by foliage treatment; type: in vivo; details: 1.6 g/a; foliage treatment after growth of 14 days; 3 weeks after treatment
Method in brief: as §3

Amaranthus retroflexus [30] = assay: Herbicidal effect test by foliage treatment; type: in vivo; details: 1.6 g/a; foliage treatment after growth of 14 days; 3 weeks after treatment
Method in brief: as §3

Black-grass [31] = assay: Herbicidal effect test by foliage treatment; type: in vivo; details: 1.6 g/a; foliage treatment after growth of 14 days; 3 weeks after treatment
Method in brief: as §3

[32] = system: Triticum aestivum (wheat); assay: Herbicidal effect test by foliage treatment; type: in vivo; details: 1.6 g/a; foliage treatment after growth of 14 days; 3 weeks after treatment
Method in brief: as §3

Ambrosia elatior [33] = assay: Herbicidal effect test by foliage treatment; type: in vivo; details: 1.6 g/a; foliage treatment after growth of 14 days; 3 weeks after treatment
Method in brief: as §3

Stellaria media [34] = assay: Herbicidal effect test by foliage treatment; type: in vivo; details: 1.6 g/a; foliage treatment after growth of 14 days; 3 weeks after treatment
Method in brief: as §3

Chenopodium album [35] = assay: Herbicidal effect test by foliage treatment; type: in vivo; details: 1.6 g/a; foliage treatment after growth of 14 days; 3 weeks after treatment
Method in brief: as §3

Avena fatua [36] = assay: Herbicidal effect test by foliage treatment; type: in vivo; details: 1.6 g/a; foliage treatment after growth of 14 days; 3 weeks after treatment
Method in brief: as §3

Setaria viridis [37] = assay: Herbicidal effect test by foliage treatment; type: in vivo; details: 1.6 g/a; foliage treatment after growth of 14 days; 3 weeks after treatment
Method in brief: as §3

Digitaria adscendes [38] = assay: Herbicidal effect test by foliage treatment; type: in vivo; details: 1.6 g/a; foliage treatment after growth of 14 days; 3 weeks after treatment
Method in brief: as §3

Compound: COc1cc(OC)nc(NC(=O)NS(=O)(=O)c2c(C3=NOCC(C)(C)O3)c(C)nn2C)n1 [Compound 7, N-((4,6-dimethoxypyrimidin-2-yl)aminocarbonyl)-4-(5,5-dimethyl-5H,6H-1,4,2-dioxadin-3-yl)-1,3-dimethylpyrazole-5-sulfonamide]
- herbicidal effect, b: corn (Zea mays) (corn (Zea mays) [1]): 4 (Herbicidal rate 70% or more and less than 90%)
- herbicidal effect, f: Beta vulgaris (beet) (Beta vulgaris (beet) [2]): 5 (Herbicidal rate 90% or more (almost complete death))
- herbicidal effect, L: Polygonum blumei (Polygonum blumei [3]): 5 (Herbicidal rate 90% or more (almost complete death))
- herbicidal effect, c: soybean (Glycine max) (soybean (Glycine max) [4]): 3 (Herbicidal rate 40% or more and less than 70%)
- herbicidal effect, H: Abutilon avicennae (Abutilon avicennae [5]): 4 (Herbicidal rate 70% or more and less than 90%)
- herbicidal effect, A: Echinochloa crus-galli (Echinochloa crus-galli [6]): 4 (Herbicidal rate 70% or more and less than 90%)
- herbicidal effect, J: Amaranthus retroflexus (Amaranthus retroflexus [7]): 5 (Herbicidal rate 90% or more (almost complete death))
- herbicidal effect, G: Black-grass (Black-grass [8]): 5 (Herbicidal rate 90% or more (almost complete death))
- herbicidal effect, e: Triticum aestivum (wheat) [9]: 5 (Herbicidal rate 90% or more (almost complete death))
- herbicidal effect, I: Ambrosia elatior (Ambrosia elatior [10]): 5 (Herbicidal rate 90% or more (almost complete death))
- herbicidal effect, M: Stellaria media (Stellaria media [11]): 5 (Herbicidal rate 90% or more (almost complete death))
- herbicidal effect, K: Chenopodium album (Chenopodium album [12]): 5 (Herbicidal rate 90% or more (almost complete death))
- herbicidal effect, F: Avena fatua (Avena fatua [13]): 4 (Herbicidal rate 70% or more and less than 90%)
- herbicidal effect, E: Setaria viridis (Setaria viridis [14]): 4 (Herbicidal rate 70% or more and less than 90%)
- herbicidal effect, D: Digitaria adscendes (Digitaria adscendes [15]): 4 (Herbicidal rate 70% or more and less than 90%)
- herbicidal effect, A: Echinochloa crus-galli (Echinochloa crus-galli [16]): 5 (Herbicidal rate 90% or more (almost complete death))
- herbicidal effect, C: Monochoria vaginalis (Monochoria vaginalis [17]): 5 (Herbicidal rate 90% or more (almost complete death))
- herbicidal effect, B: Scirpus juncoides (Scirpus juncoides [18]): 5 (Herbicidal rate 90% or more (almost complete death))
- herbicidal effect, d: direct sown rice (direct sown rice [19]): 2 (Herbicidal rate 20% or more and less than 40%)
- herbicidal effect, A: Echinochloa crus-galli (Echinochloa crus-galli [20]): 5 (Herbicidal rate 90% or more (almost complete death))
- herbicidal effect, C: Monochoria vaginalis (Monochoria vaginalis [21]): 5 (Herbicidal rate 90% or more (almost complete death))
- herbicidal effect, B: Scirpus juncoides (Scirpus juncoides [22]): 5 (Herbicidal rate 90% or more (almost complete death))
- herbicidal effect, d: direct sown rice (direct sown rice [23]): 5 (Herbicidal rate 90% or more (almost complete death))
- herbicidal effect, b: corn (Zea mays) (corn (Zea mays) [24]): 5 (Herbicidal rate 90% or more (almost complete death))
- herbicidal effect, f: Beta vulgaris (beet) (Beta vulgaris (beet) [25]): 5 (Herbicidal rate 90% or more (almost complete death))
- herbicidal effect, L: Polygonum blumei (Polygonum blumei [26]): 5 (Herbicidal rate 90% or more (almost complete death))
- herbicidal effect, c: soybean (Glycine max) (soybean (Glycine max) [27]): 5 (Herbicidal rate 90% or more (almost complete death))
- herbicidal effect, H: Abutilon avicennae (Abutilon avicennae [28]): 5 (Herbicidal rate 90% or more (almost complete death))
- herbicidal effect, A: Echinochloa crus-galli (Echinochloa crus-galli [29]): 5 (Herbicidal rate 90% or more (almost complete death))
- herbicidal effect, J: Amaranthus retroflexus (Amaranthus retroflexus [30]): 4 (Herbicidal rate 70% or more and less than 90%)
- herbicidal effect, G: Black-grass (Black-grass [31]): 5 (Herbicidal rate 90% or more (almost complete death))
- herbicidal effect, e: Triticum aestivum (wheat) [32]: 5 (Herbicidal rate 90% or more (almost complete death))
- herbicidal effect, I: Ambrosia elatior (Ambrosia elatior [33]): 5 (Herbicidal rate 90% or more (almost complete death))
- herbicidal effect, M: Stellaria media (Stellaria media [34]): 5 (Herbicidal rate 90% or more (almost complete death))
- herbicidal effect, K: Chenopodium album (Chenopodium album [35]): 5 (Herbicidal rate 90% or more (almost complete death))
- herbicidal effect, F: Avena fatua (Avena fatua [36]): 5 (Herbicidal rate 90% or more (almost complete death))
- herbicidal effect, E: Setaria viridis (Setaria viridis [37]): 4 (Herbicidal rate 70% or more and less than 90%)
- herbicidal effect, D: Digitaria adscendes (Digitaria adscendes [38]): 5 (Herbicidal rate 90% or more (almost complete death))
